Measured values: patent US12234288B2, “Immunogenic arginase 2 polypeptides” (IO Biotech ApS, priority 2018, dated 2025)

Experiments:
[1] = system: PBMCs from healthy donors and cancer patients; assay: IFNγ ELISPOT of PBMCs pre-stimulated one week in vitro with peptide and low-dose IL-2; format: cell-based, human; settings: for IFNy ELISPOT response: validation of hotspot region peptides, PBMCs from two healthy donors, FIG. 4
Description: For in vitro ELISPOT, PBMCs from cancer patients and healthy donors were pulsed with 20 μM of […] (or with no peptide as a control) and 120 U/ml IL-2 in 24-well plates for 7 days before being used in an ELISPOT assay. The cells were placed in 96-well nitrocellulose ELISPOT plates (MultiScreen MAIP N45; Millipore) pre-coated with IFNγ capture antibody (Mabtech). Arginase peptides added to a final concentration of 5 μM and plates incubated at 37° C. for 14-16 hours. After the incubation the cells were washed off and secondary biotinylated Ab (Mabtech, cat. 3420-{6-1000) was added for 2 hours at room temperature. Unbound secondary antibody was washed off and streptavidin conjugated alkaline phosphatase (AP) (Mabtech, cat. 3310-10) was added for 1 hour at room temperature. Unbound conjugated enzyme was washed off and the assay was developed by adding BCIP/NBT substrate (Mabtech, cat. 3650-10). Developed ELISPOT plates were analyzed on CTL ImmunoSpot S6 Ultimate-V analyzer using Immunospot software v5.1. Responses were reported as the difference between average numbers of spots in wells stimulated with arginase2 and wells without added peptide.
To test whether these peptides could be used to identify Arginase2 responses, PBMCs from 12 healthy donors and one cancer patients were screened for responses in IFNγ ELISPOT. PBMCs were stimulated with Arginase2 peptides and low dose IL-2 for 1 week prior to ELISPOT.
The entire arginase2 protein sequence was divided into overlapping 20-amino-acid-long peptides (with a final peptide of 24 amino acids), generating a library of 34 peptides covering the whole sequence (SEQ ID NOs 1-34)). Each peptide in the library overlapped with the first 10 amino acids of the following peptide. Using this arginase2 peptide library and the IFNγ ELISPOT assay, we next screened PBMCs from 6 healthy donors for spontaneous responses. The PBMCs were stimulated for one week with a pool of 3-4 adjacent 20-mer arginase2 library peptides and low-dose IL-2 (120 U/mL). They were then set up for an IFNγ ELISPOT assay to screen for responses against each 20-mer peptide separately.
PBMCs from two healthy donors were stimulated for one week with a single peptide and low-dose IL-2 (120 U/mL) before IFNy ELISPOTassay to validate the responses observed in the library screen.
PBMCs from […] were stimulated for one week with a single peptide and low-dose IL-2 (120 U/mL) before IFNy ELISPOTassay to validate the responses observed in the library screen. ARG2_1, ARG2_5, ARG2_13, ARG2_18 and ARG2_22 were tested in this validation.
ARG2_1 was used to screen for responses in 8 melanoma patients (AA07-AA31), 4 prostate cancer patients (UR07-27) and 13 healthy donors. PBMCs from each were stimulated for one week with a single peptide and low-dose IL-2 (120 U/mL) before IFNy ELISPOT assay.
PBMCs from healthy donors or cancer patients were stimulated with 10 μM of ARG2-derived peptides in vitro to enhance assay sensitivity. On day 2, IL-2 was added to a total of 120 U/ml IL-2 (Novartis). After 7 days, 4-6×10^5 PBMCs were placed at the bottom of an ELISPOT plate pre-coated with IFNy capture antibody (Mabtech). PBMCs from each donor or patient were set up in triplicates or quadruplicates for peptide (5 μM ARG2-derived peptide) and control stimulations. Cells were incubated in ELISPOT plates in the presence of an antigen for 14-16 hrs after which they were washed off and secondary biotinylated antibody (Mabtech) was added. After two hour incubation the secondary antibody was washed off before addition of streptavidin conjugated alkaline phosphatase (Mabtech) for 1 hr. Next, unbound enzyme was washed off and the assay was developed by adding BCIP/NBT subtrate (Mabtech). Developed ELISPOT plates were analyzed on CTL Immunospot S6 Ultimate-V analyzer with ImmunoSpot software, version 5.1. […]

[2] = system: THP-1 cells; assay: ARG1/ARG2 expression by RT-qPCR in THP-1 cells; format: cell-based, human; settings: 48 hr stimulation, FIG. 17C/17H
Description: (§1) Cytokine stimulation with IL-4 (400 U/ml), IL-13 (50 ng/ml), IFNy (100 U/ml) or cytokine cocktail (400 U/ml IL-4, 1000 U/ml GM-CSF and 1000 U/ml TNFa) was done by seeding of 0.5-0.75×10^6 cell/mL medium supplemented with the respective cytokines and 48 hrs of incubation before cells were harvested for various experiments. All cytokines are from Trichem.
(§2) Total RNA was reverse transcribed using the High Capacity cDNA Reverse Transcription Kit (Applied Biosystems). For each reaction, 1000 ng RNA was reverse transcribed. For RT-qPCR, the cDNA was diluted 1:5 and subjected to RT-qPCR analysis using the TaqMan Gene Expression Assay on the Roche Lightcycler 480 Instrument. RT-qPCRs were run in quadruplicates and data was analyzed using the ddCT-method with normalization to expression level of the house keeping gene RPLPO and control sample. For low concentration samples that were not amplified, Ct was set to 40. No-reverse transcriptase controls (cDNA reactions setup without reverse transcriptase) served as controls of specific amplification. A list of primers used in this study is found below.
A set of three siRNA duplexes targeting ARG2 was obtained from Ambion (ARG2 Silencer Select Validated siRNA, ID s1571, s1572, s1573). siRNAs were suspended in nuclease free water to 0.1 nmol stock solutions and stored at −80° C. For ARG2 silencing experiments, THP-1 cells were prepared for electroporation as described above and 10 μl of a working solution of 0.02 nmol siRNA solution was added of each of the three siRNA before transfection as previously described. Immediately after transfection, cells were transferred to pre-warmed medium and incubated for 1 hr. Transfected cells were then split in two and to half of the cells cytokine cocktail (400 U/ml IL-4, 1000 U/ml GM-CSF and 1000 U/ml TNFa) was added. Cells were incubated in medium or medium containing cytokine cocktail for 48 hrs before they were set up in intracellular cytokine staining assay. Cells were pelleted for RNA after 48 hrs for accession of knock down efficiency by RT-qPCR.

[3] = system: C57BL/6 mice; assay: Peptide vaccination of mice followed by murine IFNy ELISPOT of spleen cells; format: in vivo, mouse; settings: for mIFNy ELISPOT response to the peptide in mice vaccinated with mArg2 P5: FIG. 13; for mIFNy ELISPOT response after vaccination: three C57 mice per peptide vaccinated s.c., 7 days, FIG. 12 / FIG. 20A
Description: 3 mice in each group are vaccinated s.c. with one of the six peptides. 7 days after, the mice are terminated, spleens are homogenised and PBMC are used for mIFNy ELISPOT.
These peptides are used for a vaccination screen (see experimental schematic in FIG. 11), where three C57 mice are vaccinated subcutaneously with one of the 6 peptides. One week later, the mice are sacrificed and the spleens homogenized to obtain PBMC. These are used to set up IFNy ELISPOT to screen for responses against both the peptide used for vaccination and the other predicted epitope peptides with overlapping sequences.
(§3) Dissolved peptides were subsequently emulsified with Montanide™ adjuvant (50ul/mouse) (Seppic Inc.) for an optimal dose of 100 ug total peptide given in a total volume of 100 ul. The emulsified peptide vaccination was injected subcutaneously at the base or the tail or the flank of 12-16 week old C57BL/6 mice with a 27G needle. Control mice were given water and Montanide™ emulsification in a total volume of 100 ul. For therapeutic vaccine studies on tumor inoculated mice, vaccinations were given at day 0 and 7 after tumor inoculation at the flank of the tail and the left flank, respectively. For epitope screening- and validation experiments, a single dose of vaccine was given to mice at the right flank. One week later, mice were sacrificed, and spleens were recovered. Spleens were smashed through a […] filter and red blood cells were lysed using Red Blood Cell Lysis Buffer (Qiagen). Cells were washed 4 times and counted before setup for murine IFNy ELISPOT assay with 8*10^6 cells pr. well.

[4] = system: Lewis Lung (LL2) tumor cells; assay: Therapeutic vaccination study in Lewis Lung (LL2) tumor inoculated mice; format: in vivo; settings: LL2 tumors in C57BL/6 mice, vaccinations day 0 and day 7, compared to control, FIG. 20E-G
Description: LL2 cells (5*10^5) were resuspended in 100 ul of serum free medium and were injected subcutaneously in the right flank of female C57BL/6 mice. Tumor volumes were measured by digital caliper and the endpoint of tumor study was a tumor reaching the threshold size of 800 mm^3 or due to the formation of ulcers on the tumor.
as §3, with “well. […]” for “well.”

[5] = system: MONO-MAC-1 cells; assay: ARG2 expression by RT-qPCR in MONO-MAC-1 cells; format: cell-based, human; settings: 48 hrs incubation, FIG. 18A/B
Description: as §1, §2

[6] = system: THP-1 cells; assay: Flow cytometric analysis of HLA-DR expression in THP-1 cells; format: cell-based, human; settings: 48 hrs stimulation, data not shown
Description: HLA-DR expression analysis was performed on cells stimulated for 48 hrs with mock (no cytokines), IFNy (100U/ml) or cytokine cocktail (400U/m1 IL-4, 1000 U/ml GM-CSF and 1000 U/ml TNFa). Briefly, cells were washed and stained with 7-AAD (cat: 51-68981E, BD Bioscience) and FITC-conjugated mouse anti-human HLA-DR, DP, DQ (cat: 5555581, BD Bioscience) or FITC-conjugated mouse IgG1 K isotype ctrl (FC) (cat: 400109, BD Bioscience) for 30 minutes at 4° C. Excess antibody was washed off before cells were analyzed on FACSCanto™ II instrument. HLA-DR expression levels is given as the difference in MFI between MHC Class II stained live cells and isotype control stained live cells.

FSWIKPCISSASIVYIGLRD (listed as Homo sapiens) [ARG2_18, polypeptide derived from human Arginase2, aa181-200]
IFNy ELISPOT response [1]: strongest and most consistent responses

IL-13: cytokine from Trichem, used at 50 ng/ml [reference compound]
induction of ARG2 expression [2]: did not have much effect

LSPPNIVYI (listed as Mus musculus) [mArg2 P5, polypeptide derived from murine Arginase2, aa188-196]
mIFNy ELISPOT response to the peptide in mice vaccinated with mArg2 P5 ([3]; listed as mArg2_188-196): strong mIFNy responses | mIFNy ELISPOT response after vaccination [3]: strongest and most prominent responses

NYDIQYFSMRDIDRLGIQKV (listed as Homo sapiens) [ARG2_21, polypeptide derived from human Arginase2, aa211-230]
IFNy ELISPOT response [1]: stronger response

PNIVYIGL (listed as Mus musculus) [mArg2 P3, polypeptide derived from murine Arginase2, aa191-198]
mIFNy ELISPOT response to the peptide in mice vaccinated with mArg2 P5 [3]: no response or only weak responses

SASIVYIGLRDVDPPEHFIL (listed as Homo sapiens) [ARG2-E18, polypeptide derived from human Arginase2, aa190-209]
IFNγ ELISPOT response ([1]; hotspot peptide screen, PBMCs from 12 healthy donors and one cancer patient, FIG. 2): highest and most consistent response

WIKPCLSPPNIVYIGL (listed as Mus musculus) [mArg2 P4, polypeptide derived from murine Arginase2, aa182-197]
mIFNy ELISPOT response to the peptide in mice vaccinated with mArg2 P5 ([3]; listed as mArg2_182-197): strong mIFNy responses | mIFNy ELISPOT response after vaccination [3]: Strong immune responses | tumor growth [4]: decreased tumor growth

B1: IL-4: cytokine from Trichem, used at 400 U/ml (protein, UniProt P05112 25-153, looked up)
Interleukin-4: HKCDITLQEIIKTLNSLTEQKTLCTELTVTDIFAASKNTTEKETFCRAATVLRQFYSHHEKDTRCLGATAQQFHRHKQLIRFLKRLDRNLWGLAGLNSCPVKEANQSTLENFLERLKTIMREKYSKCSS
induction of ARG2 expression [2]: did not have much effect

B2: IFNy: cytokine from Trichem, used at 100 U/ml (protein, UniProt P01579 24-161, looked up)
Interferon gamma: QDPYVKEAENLKKYFNAGHSDVADNGTLFLGILKNWKEESDRKIMQSQIVSFYFKLFKNFKDDQSIQKSVETIKEDMNVKFFNSNKKKRDDFEKLTNYSVTDLNVQRKAIHELIQVMAELSPAAKTGKRKRSQMLFRG
induction of ARG2 expression [2]: not ARG2 expression | ARG2 expression [5]: did not upregulate ARG2 expression | HLA-DR expression [6]: increase HLA-DR expression
